Several values for one entry are separate records, joined by “and”; a condition that tells them apart may be missing. Identical values can stand only once. Inconclusive results and toxic doses are left out. Rule as the data show it: active = T/C of 150% or more; inactive = T/C below 125%.
Test system: L1210 leukemia ip in BDF1 mice, survival T/C
Test: NCI In Vivo Anticancer Drug Screen. Data for tumor model L1210 Leukemia (intraperitoneal) in B6D2F1 (BDF1) mice
Details: endpoint: mean survival time, higher = longer survival
Outline: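 Each compound was tested against a transplantable tumor grown in mice. The endpoint was survival, with treated animals benchmarked against vehicle controls as a simple ratio.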

[1] = dose: 100.0 mg/kg/injection, schedule: Q04DX002 (ip), vehicle: Klucel (hydroxypropylcellulose) (HPC)
[2] = dose: 400.0 mg/kg/injection, schedule: Q04DX002 (ip), vehicle: Klucel (hydroxypropylcellulose) (HPC)
[3] = dose: 20.0 mg/kg/injection, schedule: Q01DX009 (ip), vehicle: saline
[4] = dose: 100.0 mg/kg/injection, schedule: Q01DX009 (ip), vehicle: saline
[5] = dose: 100.0 mg/kg/injection, schedule: Q04DX003 (ip), vehicle: Klucel (hydroxypropylcellulose) (HPC)
[6] = dose: 200.0 mg/kg/injection, schedule: Q04DX003 (ip), vehicle: Klucel (hydroxypropylcellulose) (HPC)
[7] = dose: 400.0 mg/kg/injection, schedule: Q04DX003 (ip), vehicle: Klucel (hydroxypropylcellulose) (HPC)
[8] = dose: 25.0 mg/kg/injection, schedule: Q04DX002 (ip), vehicle: Klucel (hydroxypropylcellulose) (HPC)
[9] = dose: 50.0 mg/kg/injection, schedule: Q04DX002 (ip), vehicle: Klucel (hydroxypropylcellulose) (HPC)
[10] = dose: 100.0 mg/kg/injection, schedule: Q01DX009 (ip), vehicle: Klucel (hydroxypropylcellulose) (HPC)
[11] = dose: 200.0 mg/kg/injection, schedule: Q01DX009 (ip), vehicle: Klucel (hydroxypropylcellulose) (HPC)
[12] = dose: 400.0 mg/kg/injection, schedule: Q01DX009 (ip), vehicle: Klucel (hydroxypropylcellulose) (HPC)
[13] = dose: 100.0 mg/kg/injection, schedule: Q01DX009 (ip), vehicle: saline with Tween-80
[14] = dose: 100.0 mg/kg/injection, schedule: Q01DX001 (ip), vehicle: saline
[15] = dose: 200.0 mg/kg/injection, schedule: Q01DX001 (ip), vehicle: saline
[16] = dose: 400.0 mg/kg/injection, schedule: Q01DX001 (ip), vehicle: saline
[17] = dose: 100.0 mg/kg/injection, schedule: Q04DX003 (ip), vehicle: saline with Tween-80
[18] = dose: 200.0 mg/kg/injection, schedule: Q04DX003 (ip), vehicle: saline with Tween-80
[19] = dose: 100.0 mg/kg/injection, schedule: Q04DX002 (ip), vehicle: saline with Tween-80
[20] = dose: 200.0 mg/kg/injection, schedule: Q04DX002 (ip), vehicle: saline with Tween-80
[21] = dose: 400.0 mg/kg/injection, schedule: Q04DX002 (ip), vehicle: saline with Tween-80
[22] = dose: 200.0 mg/kg/injection, schedule: Q01DX009 (ip), vehicle: saline with Tween-80

Measured: T/C

S=C(Sc1nc2ccccc2s1)Sc1nc2ccccc2s1
inactive: [1] 105 % of control | dose: 200.0 mg/kg/injection, schedule: Q04DX002 (ip), vehicle: Klucel (hydroxypropylcellulose) (HPC) 94 % of control | [2] 101 % of control

CC1(C)N=C(N)N=C(N)N1c1ccc(CC(=O)Nc2ccc(S(=O)(=O)F)cc2)cc1
inactive: dose: 0.8 mg/kg/injection, schedule: Q01DX009 (ip), vehicle: saline 95 % of control | dose: 4.0 mg/kg/injection, schedule: Q01DX009 (ip), vehicle: saline 95 % of control | [3] 97 % of control | [4] 97 % of control | dose: 500.0 mg/kg/injection, schedule: Q01DX009 (ip), vehicle: saline 94 % of control

N#CCCCC[P+](c1ccccc1)(c1ccccc1)c1ccccc1
inactive: dose: 25.0 mg/kg/injection, schedule: Q01DX009 (ip), vehicle: saline 107 % of control | dose: 50.0 mg/kg/injection, schedule: Q01DX009 (ip), vehicle: saline 93 % of control

Cc1ccc(S(=O)(=O)Nc2ccc(NS(=O)(=O)c3ccc(C)cc3)cc2)cc1
inactive: [4] 97 % of control | [5] 105 % of control | dose: 200.0 mg/kg/injection, schedule: Q01DX009 (ip), vehicle: saline 94 % of control | [6] 95 % of control | dose: 400.0 mg/kg/injection, schedule: Q01DX009 (ip), vehicle: saline 94 % of control | [7] 101 % of control

CCOC(=O)N1C2C=CC(C2)N1C(=O)OCC
inactive: dose: 100.0 mg/kg/injection, schedule: Q04DX002 (sc), vehicle: olive oil, sesame oil, peanut oil 94 % of control | dose: 200.0 mg/kg/injection, schedule: Q04DX002 (sc), vehicle: olive oil, sesame oil, peanut oil 102 % of control | dose: 400.0 mg/kg/injection, schedule: Q04DX002 (sc), vehicle: olive oil, sesame oil, peanut oil 97 % of control

CCOC(=O)C1C=NC([N+](=O)[O-])=C1Br (configuration not stated)
inactive: [8] 102 % of control | [9] 109 % of control | [1] 103 % of control and 105 % of control | [2] 93 % of control

COc1ccc(/C=N/NC(=O)CNC(=O)c2ccccc2)cc1
inactive: dose: 25.0 mg/kg/injection, schedule: Q01DX009 (ip), vehicle: saline with Tween-80 93 % of control | dose: 50.0 mg/kg/injection, schedule: Q01DX009 (ip), vehicle: saline with Tween-80 95 % of control | [13] 91 % of control

CCOC(=O)NN(C(=O)OCC)c1c(N(C)NC(C)=O)nc(N)[nH]c1=O
inactive: [14] 96 % of control | [15] 86 % of control | [16] 96 % of control

Cc1nc2cccc3ccc4cc5ccccc5c1c4c32
inactive: [17] 89 % of control | [18] 93 % of control

COc1cc(Cl)ccc1NC(=O)Oc1ccc(-c2ccccc2)cc1
inactive: [10] 116 % of control | [11] 94 % of control | [12] 92 % of control

C[Si](C)(c1ccc(C(=O)Cl)cc1)c1ccc(C(=O)Cl)cc1
inactive: [19] 96 % of control | [20] 96 % of control | [21] 100 % of control

Clc1ccccc1C(c1ccccc1)(c1ccc2ccccc2c1)n1ccnc1 (configuration not stated)
inactive: [5] 102 % of control | [6] 101 % of control | [7] 101 % of control

COc1cc2cc3cc4cc(OC)c(OC)cc4c(C)[n+]3cc2cc1OC (tested in a mixture with another compound)
inactive: dose: 2.5 mg/kg/injection, schedule: Q01DX009 (ip), vehicle: saline 106 % of control | dose: 5.0 mg/kg/injection, schedule: Q01DX009 (ip), vehicle: saline 108 % of control and 118 % of control | dose: 10.0 mg/kg/injection, schedule: Q01DX009 (ip), vehicle: saline 108 % of control | [3] 104 % of control | dose: 40.0 mg/kg/injection, schedule: Q01DX009 (ip), vehicle: saline 110 % of control and 111 % of control | dose: 80.0 mg/kg/injection, schedule: Q01DX009 (ip), vehicle: saline 92 % of control

CCC(C)(CCC(C)C)c1ccncc1 (configuration not stated)
inactive: [14] 106 % of control | [15] 98 % of control

Nc1n[nH]c([N+](=O)[O-])n1
inactive: dose: 100.0 mg/kg/injection, schedule: Q04DX003 (ip), vehicle: saline sonified 100 % of control | dose: 200.0 mg/kg/injection, schedule: Q04DX003 (ip), vehicle: saline sonified 103 % of control | dose: 400.0 mg/kg/injection, schedule: Q04DX003 (ip), vehicle: saline sonified 109 % of control

O=C(O)CCSCCC(=O)O
inactive: dose: 75.0 mg/kg/injection, schedule: Q01DX009 (ip), vehicle: Klucel (hydroxypropylcellulose) (HPC) 92 % of control | dose: 75.0 mg/kg/injection, schedule: Q04DX003 (ip), vehicle: saline 100 % of control | dose: 150.0 mg/kg/injection, schedule: Q01DX009 (ip), vehicle: Klucel (hydroxypropylcellulose) (HPC) 92 % of control | dose: 150.0 mg/kg/injection, schedule: Q04DX003 (ip), vehicle: saline 100 % of control | dose: 300.0 mg/kg/injection, schedule: Q01DX009 (ip), vehicle: Klucel (hydroxypropylcellulose) (HPC) 94 % of control | dose: 300.0 mg/kg/injection, schedule: Q04DX003 (ip), vehicle: saline 102 % of control

CCO[Si](C)(C)CCl
inactive: [14] 98 % of control | [15] 101 % of control | [16] 106 % of control

CC(=O)Nc1cc(C(=O)O)cc(C(F)(F)F)c1
inactive: [13] 96 % of control | [17] 96 % of control | [22] 100 % of control | [18] 102 % of control | dose: 400.0 mg/kg/injection, schedule: Q01DX009 (ip), vehicle: saline with Tween-80 97 % of control | dose: 400.0 mg/kg/injection, schedule: Q04DX003 (ip), vehicle: saline with Tween-80 94 % of control

COc1ccc2c(c1)CC(CN1CCC3(CC1)C(=O)N(C)CN3c1ccccc1)O2 (configuration not stated)
inactive: dose: 75.0 mg/kg/injection, schedule: Q04DX003 (ip), vehicle: Klucel (hydroxypropylcellulose) (HPC) 101 % of control | dose: 150.0 mg/kg/injection, schedule: Q04DX003 (ip), vehicle: Klucel (hydroxypropylcellulose) (HPC) 107 % of control | dose: 300.0 mg/kg/injection, schedule: Q04DX003 (ip), vehicle: Klucel (hydroxypropylcellulose) (HPC) 95 % of control

Cn1c2ccccc2c2n[nH]c(=S)nc21
inactive: [19] 104 % of control | [20] 93 % of control | [21] 101 % of control

Cc1ccc(Cl)cc1NS(=O)(=O)c1ccccc1[N+](=O)[O-]
inactive: [10] 93 % of control | [11] 93 % of control | [12] 96 % of control

CC(C)CC(NC(=O)c1ccccc1)C(N)=O (configuration not stated)
inactive: [13] 90 % of control | [22] 90 % of control

Nc1cccc(-c2csc(N)n2)c1
inactive: dose: 100.0 mg/kg/injection, schedule: Q01DX001 (ip), vehicle: carboxymethylcellulose (CMC) 100 % of control | dose: 200.0 mg/kg/injection, schedule: Q01DX001 (ip), vehicle: carboxymethylcellulose (CMC) 100 % of control

NCCCNCC1C(c2ccccc2)C1c1ccccc1 (configuration not stated)
inactive: [8] 100 % of control | [9] 114 % of control
